{"source": "patent US20230000089A1", "about": "“COMPOSITION ENRICHED IN POLYPHENOLS AND FLAVONOIDS FOR USE AS BIOSTIMULANT AND ANTIMICROBIAL FOR AGRICULTURE APPLICATIONS” (BOTANITEC SPA, priority 2019, published 2023)", "experiment_in_all_cases": "Inhibition halo", "format_in_all_cases": "cell-based", "details_in_all_cases": "positive control antibiotic 0.1 g/L", "key": {"Salmonella sp": {"tested_on": "Salmonella sp", "method": "(§1) Routine experiments were performed comparing the inhibition halos, using an antibiotic as a positive control: carbamycin 0.1 g/L for Bacillus sp; chloramphenicol 0.1 g/L for Enterobacter aerogenes; and, ampicillin 0.1 g/L. for Salmonella sp, Staphylococcus aureus and Escherichia coli as shown in Table 7 below."}, "Staphylococcus aureus": {"tested_on": "Staphylococcus aureus", "method": "as §1"}, "Escherichia coli": {"tested_on": "Escherichia coli", "method": "FIG. 7. Inhibitory effect of the composition of the invention on Escherichia coli.\nas §1"}, "Enterobacter aerogenes": {"tested_on": "Enterobacter aerogenes", "method": "as §1"}, "Bacillus sp": {"tested_on": "Bacillus sp", "method": "as §1"}}}
{"compound": "CC1(C)S[C@@H]2[C@H](NC(=O)[C@H](N)c3ccccc3)C(=O)N2[C@H]1C(=O)O", "note": "[ampicillin]", "values": [{"measurement": "Inhibition halo", "setting": "Salmonella sp", "result": 28, "unit": "mm"}, {"measurement": "Inhibition halo", "setting": "Staphylococcus aureus", "result": 25, "unit": "mm"}, {"measurement": "Inhibition halo", "setting": "Escherichia coli", "result": 52, "unit": "mm"}]}
{"compound": "O=C(N[C@H](CO)[C@H](O)c1ccc([N+](=O)[O-])cc1)C(Cl)Cl", "note": "[chloramphenicol]", "values": [{"measurement": "Inhibition halo", "setting": "Enterobacter aerogenes", "result": 50, "unit": "mm"}]}
{"compound": "carbamycin", "values": [{"measurement": "Inhibition halo", "setting": "Bacillus sp", "result": 31, "unit": "mm"}]}
